Experimental data: patent US10933063B2 (priority 2017, dated 2021)
pIC50: −log10 of the molar value.

Target: BTK (Homo sapiens (Human), UniProt Q06187)
Assay: biochemical

BTK, sequence (Q06187 whole entry, looked up, species assumed): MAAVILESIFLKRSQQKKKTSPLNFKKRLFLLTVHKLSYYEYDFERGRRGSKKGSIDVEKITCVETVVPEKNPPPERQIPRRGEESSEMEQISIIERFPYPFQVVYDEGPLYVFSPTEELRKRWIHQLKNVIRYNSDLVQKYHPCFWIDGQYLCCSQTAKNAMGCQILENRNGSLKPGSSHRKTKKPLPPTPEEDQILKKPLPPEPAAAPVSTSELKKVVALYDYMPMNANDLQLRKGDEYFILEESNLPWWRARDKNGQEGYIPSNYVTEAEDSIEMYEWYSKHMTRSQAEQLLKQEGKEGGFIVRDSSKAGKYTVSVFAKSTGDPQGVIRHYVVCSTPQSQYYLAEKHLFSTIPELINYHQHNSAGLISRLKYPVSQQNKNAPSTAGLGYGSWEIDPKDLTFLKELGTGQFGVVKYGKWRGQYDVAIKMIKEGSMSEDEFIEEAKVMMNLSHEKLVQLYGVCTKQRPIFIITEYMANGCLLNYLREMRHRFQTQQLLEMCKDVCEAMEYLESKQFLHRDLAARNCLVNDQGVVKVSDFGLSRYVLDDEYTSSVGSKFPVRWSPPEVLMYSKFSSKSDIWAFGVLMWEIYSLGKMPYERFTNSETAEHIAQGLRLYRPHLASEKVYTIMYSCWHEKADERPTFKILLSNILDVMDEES

| SMILES | pIC50 |
| --- | --- |
| CC#CC(=O)N1CCCC[C@H]1c1nc(-c2ccc(Oc3cccc(C)c3)cc2)c2c(C)nccn12 [Example 41, (S)-1-(2-(8-methyl-1-(4-(m-tolyloxy)phenyl)imidazo[1,5-a]pyrazin-3-yl)piperidin-1-yl)but-2-yn-1-one] | 7.00 to 8.00 |
| C=CC(=O)N1CCC[C@H]1c1nc(-c2ccc(Oc3cccc(OC)c3F)cc2)c2cnc(C)cn12 [Example 83, (S)-1-(2-(1-(4-(2-fluoro-3-methoxyphenoxy)phenyl)-6-methylimidazo[1,5-a]pyrazin-3-yl)pyrrolidin-1-yl)prop-2-en-1-one] | 7.00 to 8.00 |
| C=CC(=O)N1CCCC[C@H]1c1nc(-c2ccc(Oc3cccc(OC)c3)cc2)c2cnccn12 [Example 58, (S)-1-(2-(1-(4-(3-methoxyphenoxy)phenyl)imidazo[1,5-a]pyrazin-3-yl)piperidin-1-yl)prop-2-en-1-one] | 7.00 to 8.00 |
| C=CC(=O)N1CCC[C@H]1c1nc(-c2ccc(Oc3cccc(C)c3C)cc2)c2cnccn12 [Example 12, (S)-1-(2-(1-(4-(2,3-dimethylphenoxy)phenyl)imidazo[1,5-a]pyrazin-3-yl)pyrrolidin-1-yl)prop-2-en-1-one] | 7.00 to 8.00 |
| CC#CC(=O)N1CCC[C@H]1c1nc(-c2ccc(OCc3ccc(F)c(F)c3)cc2)c2cnccn12 [Example 134, (S)-1-(2-(1-(4-((3,4-difluorobenzyl)oxy)phenyl)imidazo[1,5-a]pyrazin-3-yl)pyrrolidin-1-yl)but-2-yn-1-one] | 5.00 to 6.00 |
| C=CC(=O)N1CCC[C@H]1c1nc(-c2ccc(Oc3ccccc3)nc2)c2cnccn12 [Example 4, (S)-1-(2-(1-(6-Phenoxypyridin-3-yl)imidazo[1,5-a]pyrazin-3-yl)pyrrolidin-1-yl)prop-2-en-1-one] | 6.00 to 7.00 |
| C=CC(=O)N1CCCC[C@H]1c1nc(-c2ccc(Oc3cccc(F)c3)cc2)c2cnccn12 [Example 45, (S)-1-(2-(1-(4-(3-fluorophenoxy)phenyl)imidazo[1,5-a]pyrazin-3-yl)piperidin-1-yl)prop-2-en-1-one] | 7.00 to 8.00 |
| CC#CC(=O)N1CC[C@@H](c2nc(-c3ccc(Oc4cccc(OC)c4F)cc3)c3cncc(OCCOC)n23)C1 [Example 103, (R)-1-(3-(1-(4-(2-fluoro-3-methoxyphenoxy)phenyl)-5-(2-methoxyethoxy)imidazo[1,5-a]pyrazin-3-yl)pyrrolidin-1-yl)but-2-yn-1-one] | 7.00 to 8.00 |
| C=CC(=O)N1CC[C@@H](c2nc(-c3ccc(Oc4cccc(OC)c4F)cc3)c3cncc(OC(C)C)n23)C1 [Example 114, (R)-1-(3-(1-(4-(2-fluoro-3-methoxyphenoxy)phenyl)-5-isopropoxyimidazo[1,5-a]pyrazin-3-yl)pyrrolidin-1-yl)prop-2-en-1-one] | 7.00 to 8.00 |
| C=CC(=O)N1CCCC[C@H]1c1nc(-c2ccc(C(=O)Nc3cc(C(F)(F)F)ccn3)cc2)c2c(C(F)(F)F)nccn12 [Example 201, (S)-4-(3-(1-acryloylpiperidin-2-yl)-8-(trifluoromethyl)imidazo[1,5-a]pyrazin-1-yl)-N-(4-(trifluoromethyl)pyridin-2-yl)benzamide] | 5.00 to 6.00 |
| C=CC(=O)N1CC[C@@H](c2nc(-c3ccc(C(=O)Nc4ccccn4)cc3)c3cnccn23)C1 [Example 176, (R)-4-(3-(1-acryloylpyrrolidin-3-yl)imidazo[1,5-a]pyrazin-1-yl)-N-(pyridin-2-yl)benzamide] | 7.00 to 8.00 |
| CC#CC(=O)N1CCC[C@H]1c1nc(-c2ccc(Oc3cccc(OC)c3F)cc2)c2c(O)nccn12 [Example 35, (S)-1-(2-(1-(4-(2-fluoro-3-methoxyphenoxy)phenyl)-8-hydroxyimidazo[1,5-a]pyrazin-3-yl)pyrrolidin-1-yl)but-2-yn-1-one] | 5.00 to 6.00 |
| C=CC(=O)N1CCC[C@H]1c1nc(-c2ccc(Oc3ccccc3)cc2Cl)c2cnccn12 [Example 13, (S)-1-(2-(1-(2-chloro-4-phenoxyphenyl)imidazo[1,5-a]pyrazin-3-yl)pyrrolidin-1-yl)prop-2-en-1-one] | 7.00 to 8.00 |
| CC#CC(=O)N1CC[C@@H](c2nc(-c3ccc(C(=O)Nc4ccccn4)cc3)c3cncc(C)n23)C1 [Example 181, (R)-4-(3-(1-(but-2-ynoyl)pyrrolidin-3-yl)-5-methylimidazo[1,5-a]pyrazin-1-yl)-N-(pyridin-2-yl)benzamide] | 5.00 to 6.00 |
| C=CC(=O)N1CCC[C@@H](c2nc(-c3ccc(C(=O)Nc4ccccn4)cc3)c3cncc(C)n23)C1 [Example 178, (R)-4-(3-(1-acryloylpiperidin-3-yl)-5-methylimidazo [1,5-a]pyrazin-1-yl)-N-(pyridin-2-yl)benzamide] | 6.00 to 7.00 |
| C=CC(=O)N1CCCC[C@H]1c1nc(-c2cccc(OCc3cccc(C(F)(F)F)c3)c2)c2c(C)nccn12 [Example 162, (S)-1-(2-(8-methyl-1-(3-((3-(trifluoromethyl)benzyl)oxy)phenyl)imidazo[1,5-a]pyrazin-3-yl)piperidin-1-yl)prop-2-en-1-one] | 5.00 to 6.00 |
| CC#CC(=O)N1CCCC[C@H]1c1nc(-c2ccc(C(=O)Nc3ccccn3)cc2)c2cncc(C)n12 [Example 187, (S)-4-(3-(1-(but-2-ynoyl)piperidin-2-yl)-5-methylimidazo[1,5-a]pyrazin-1-yl)-N-(pyridin-2-yl)benzamide] | 5.00 to 6.00 |
| C=CC(=O)N1CCCC[C@H]1c1nc(-c2ccc(C(=O)Nc3ccccn3)cc2)c2cnccn12 [Example 168, (S)-4-(3-(1-acryloylpiperidin-2-yl)imidazo[1,5-a]pyrazin-1-yl)-N-(pyridin-2-yl) benzamide] | 7.00 to 8.00 |
| CC#CC(=O)N1CCC[C@H]1c1nc(-c2ccc(Oc3cccc(OC)c3F)cc2)c2c(CO)nccn12 [Example 123, (S)-1-(2-(1-(4-(2-fluoro-3-methoxyphenoxy)phenyl)-8-(hydroxymethyl)imidazo[1,5-a]pyrazin-3-yl)pyrrolidin-1-yl)but-2-yn-1-one] | 6.00 to 7.00 |
| C=CC(=O)N1CCC[C@H]1c1nc(-c2ccc(Oc3cccc(C)c3)cc2)c2cnccn12 [Example 10, (S)-1-(2-(1-(4-(m-tolyloxy)phenyl)imidazo[1,5-a]pyrazin-3-yl)pyrrolidin-1-yl)prop-2-en-1-one] | 7.00 to 8.00 |
| C=CC(=O)N1CCC[C@H]1c1nc(-c2ccc(COc3ccc(F)cc3)cc2)c2cnccn12 [Example 126, (S)-1-(2-(1-(4-((4-fluorophenoxy)methyl)phenyl)imidazo[1,5-a]pyrazin-3-yl)pyrrolidin-1-yl)prop-2-en-1-one] | 7.00 to 8.00 |
| CC#CC(=O)N1CCC[C@H]1c1nc(-c2ccc(C(=O)Nc3ccccn3)cc2)c2cncc(C)n12 [Example 173, (S)-4-(3-(1-(but-2-ynoyl)pyrrolidin-2-yl)-5-methylimidazo[1,5-a]pyrazin-1-yl)-N-(pyridin-2-yl)benzamide] | 5.00 to 6.00 |
| COc1cccc(Oc2ccc(-c3nc([C@@H]4CCCN4Cc4ccccc4)n4ccncc34)cc2)c1F [Example 32, (S)-3-(1-benzylpyrrolidin-2-yl)-1-(4-(2-fluoro-3-methoxyphenoxy)phenyl)imidazo[1,5-a]pyrazine] | 5.00 to 6.00 |
| CC#CC(=O)N1CCC[C@H]1c1nc(-c2ccc(Oc3cccc(OC)c3F)cc2)c2c(C)ncc(C)n12 [Example 65, (S)-1-(2-(1-(4-(2-fluoro-3-methoxyphenoxy)phenyl)-5,8-dimethylimidazo[1,5-a]pyrazin-3-yl)pyrrolidin-1-yl)but-2-yn-1-one] | 7.00 to 8.00 |
